Test results as given in patent US20250296934A1, “AZEPINOINDOLES AND METHODS OF PREPARATION THEREOF” (priority 2022, published 2025).
Where two headings read alike, the source gives them in different places.

Legend:
hepatocyte [1] = assay: In vitro hepatocyte clearance, rat; type: in vitro ADME; details: Rat
Description: (§1) Additional experimentation was performed on compounds 1, W5, and A93. Table 6a, 6b and 6c summarize, among other things, the anticipated hepatic clearance of compounds 1, W5 and A93 respectively, in various species, as specified in Table 6a, 6b and 6c and as determined by calculating the in vitro hepatocyte clearance over time and scaling such rate with such species' hepatocyte count and the anticipated liver blood flow rate in such species.

[2] = In vitro hepatocyte clearance, rat; type: in vitro ADME
Description: as §1

5-HT1B = 5-HT1B (Homo sapiens, UniProt P28222); assay: 5-HT receptor activity (Table 3), 5-HT1B; type: cell-based
Plasma PK in dog = type: in vivo
Description: (§2) Tables 7a and 7b summarize, among other things, the observed plasma PK properties in animals, for Compound 1: […]

5-HT1F = biological target: T1, 5-HT1F (Homo sapiens, UniProt P30939); assay: 5-HT receptor activity (Table 3), 5-HT1F; type: cell-based
T1 sequence (P30939 1-366): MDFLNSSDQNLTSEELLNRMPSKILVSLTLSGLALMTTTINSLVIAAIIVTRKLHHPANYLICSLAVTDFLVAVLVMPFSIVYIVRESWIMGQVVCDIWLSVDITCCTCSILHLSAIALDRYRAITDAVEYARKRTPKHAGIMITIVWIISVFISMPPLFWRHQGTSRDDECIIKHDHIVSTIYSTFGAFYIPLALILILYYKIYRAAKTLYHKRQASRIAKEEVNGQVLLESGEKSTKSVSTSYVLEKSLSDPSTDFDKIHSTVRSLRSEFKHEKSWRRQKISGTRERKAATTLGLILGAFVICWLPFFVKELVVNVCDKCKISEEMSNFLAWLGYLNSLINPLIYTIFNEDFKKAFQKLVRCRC

5-HT2B [3] = biological target: T2, 5-HT2B (Homo sapiens, UniProt P41595); assay: 5-HT receptor activity (Table 3), 5-HT2B; type: cell-based
Target sequence in this assay (P41595 whole entry, species assumed): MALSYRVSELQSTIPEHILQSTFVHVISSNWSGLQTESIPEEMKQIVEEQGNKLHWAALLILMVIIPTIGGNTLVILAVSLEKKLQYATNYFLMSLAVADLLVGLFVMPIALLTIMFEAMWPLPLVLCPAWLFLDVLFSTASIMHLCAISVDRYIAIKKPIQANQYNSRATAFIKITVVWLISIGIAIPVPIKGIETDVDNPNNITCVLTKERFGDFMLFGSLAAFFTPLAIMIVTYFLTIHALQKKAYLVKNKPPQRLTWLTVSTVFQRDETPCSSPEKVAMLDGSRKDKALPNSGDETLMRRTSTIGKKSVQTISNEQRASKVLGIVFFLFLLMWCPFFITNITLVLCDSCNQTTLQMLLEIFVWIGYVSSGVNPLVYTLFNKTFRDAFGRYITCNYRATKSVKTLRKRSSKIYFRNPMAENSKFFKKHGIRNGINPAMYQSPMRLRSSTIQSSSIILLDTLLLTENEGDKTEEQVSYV

5-HT2C = biological target: T3, 5-HT2C (Homo sapiens, UniProt P28335); assay: cell-based; type: cell-based; parameters: expressed in transfected cells; host or cells: HEK293T
T3 sequence (P28335 33-458): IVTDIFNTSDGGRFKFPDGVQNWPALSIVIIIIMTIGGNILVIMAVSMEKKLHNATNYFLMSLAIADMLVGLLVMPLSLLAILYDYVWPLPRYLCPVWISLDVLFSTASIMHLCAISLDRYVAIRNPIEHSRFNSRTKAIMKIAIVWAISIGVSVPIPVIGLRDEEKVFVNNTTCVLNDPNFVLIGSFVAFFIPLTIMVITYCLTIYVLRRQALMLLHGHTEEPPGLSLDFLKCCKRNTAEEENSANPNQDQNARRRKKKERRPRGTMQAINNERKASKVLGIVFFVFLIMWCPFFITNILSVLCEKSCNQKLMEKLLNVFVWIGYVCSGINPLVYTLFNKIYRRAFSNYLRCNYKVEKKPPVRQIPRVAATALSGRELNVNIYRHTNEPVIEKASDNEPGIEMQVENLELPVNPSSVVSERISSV

5-HT2B [4] = biological target: T2, 5-HT2B; assay: 5-HT2B Gq dissociation BRET functional assay; type: cell-based; parameters: expressed in transfected cells; host or cells: HEK293T
Target sequence in this assay (P41595 whole entry): as the sequence (P41595 whole entry, species assumed) above

5-HT6 = 5-HT6 (Homo sapiens, UniProt P50406); assay: 5-HT receptor activity (Table 3), 5-HT6; type: cell-based
Plasma PK in rat = type: in vivo
Description: as §2

[5] = tested on: SafetyScreen44™ panel hits; assay: Follow up functional assays of SafetyScreen44 hits; parameters: species or system human
Description: Various compounds disclosed herein were subjected to an in vitro SafetyScreen44™ panel for identifying off-target activity. Compounds of interest that are identified in the panel are then tested in follow up functional assays to identify if such compounds have a significant off-target risk. […] It is predicted that other compounds share similar characteristics with compound 1 and also lack of the off-target activity.

hepatocyte [6] = assay: In vitro hepatocyte clearance, human; type: in vitro ADME; details: Human
Description: as §1

5-HT5A = 5-HT5A (Homo sapiens, UniProt P47898); assay: 5-HT receptor activity (Table 3), 5-HT5A; type: cell-based
[7] = normalized to % 5-HT stimulation

Chain of 5-HT1B (P28222 whole entry, species assumed): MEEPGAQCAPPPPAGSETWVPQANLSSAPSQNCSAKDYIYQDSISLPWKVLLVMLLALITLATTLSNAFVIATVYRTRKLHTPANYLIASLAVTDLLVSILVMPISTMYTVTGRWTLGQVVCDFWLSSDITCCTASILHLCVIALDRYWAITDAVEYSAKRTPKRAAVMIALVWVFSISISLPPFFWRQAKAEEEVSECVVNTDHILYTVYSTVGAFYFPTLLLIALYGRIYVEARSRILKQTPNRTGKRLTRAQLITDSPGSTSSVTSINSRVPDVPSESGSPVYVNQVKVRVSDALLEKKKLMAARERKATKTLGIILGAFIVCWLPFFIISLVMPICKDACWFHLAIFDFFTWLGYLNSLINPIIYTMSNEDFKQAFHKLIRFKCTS
Chain of 5-HT6 (P50406 whole entry, species assumed): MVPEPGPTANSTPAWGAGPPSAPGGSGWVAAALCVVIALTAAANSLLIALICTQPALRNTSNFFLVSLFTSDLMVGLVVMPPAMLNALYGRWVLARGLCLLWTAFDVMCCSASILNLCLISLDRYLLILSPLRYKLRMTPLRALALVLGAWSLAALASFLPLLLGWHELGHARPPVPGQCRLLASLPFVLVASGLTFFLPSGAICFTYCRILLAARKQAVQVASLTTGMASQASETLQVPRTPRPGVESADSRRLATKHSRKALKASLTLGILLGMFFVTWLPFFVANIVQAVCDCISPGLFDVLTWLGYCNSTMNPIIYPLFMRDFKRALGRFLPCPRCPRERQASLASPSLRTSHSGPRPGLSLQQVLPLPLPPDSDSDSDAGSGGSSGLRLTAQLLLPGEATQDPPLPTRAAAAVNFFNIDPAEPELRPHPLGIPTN
Chain of 5-HT5A (P47898 whole entry, species assumed): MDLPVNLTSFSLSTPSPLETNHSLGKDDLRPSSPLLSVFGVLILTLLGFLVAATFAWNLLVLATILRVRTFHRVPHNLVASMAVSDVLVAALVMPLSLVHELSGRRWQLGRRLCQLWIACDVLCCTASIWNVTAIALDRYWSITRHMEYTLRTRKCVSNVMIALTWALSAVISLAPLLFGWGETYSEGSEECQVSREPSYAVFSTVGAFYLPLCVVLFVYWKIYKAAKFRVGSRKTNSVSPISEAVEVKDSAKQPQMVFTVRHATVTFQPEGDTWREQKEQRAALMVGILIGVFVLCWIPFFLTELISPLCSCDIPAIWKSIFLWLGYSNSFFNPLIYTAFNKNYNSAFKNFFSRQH

For `Cc1ccc(O)c2c3c([nH]c12)CCNCC3` [Cpd #1 (Pharm-136), 7-Methyl-1,2,3,4,5,6-hexahydroazepino[4,5-b]indol-10-ol], the “Hepatic Extraction Ratio (E)” value (hepatocyte [1]) was 0.32, the “Predicted hepatic CL” value (hepatocyte [1]) was 17.41 mL/min/kg and the hepatocyte CLint ([2]; Rat hepatocytes) was 5.43 µL/min/1e6 cells. The half-life ([2]; Rat hepatocytes, read-out: In vitro T1/2) was 4.26 h, the CLint scaled ([2]; rat, hepatocytes, read-out: Scale-up Clint) was 25.4 mL/min/kg and the EC50 (5-HT1B) was 327 nM. For the same compound, the Eff (5-HT1B) was 74%, the AUC(0-t) (Plasma PK in dog; IV, 2 mg/kg) was 1200 ng·h/mL and the half-life (Plasma PK in dog; IV, 2 mg/kg) was 2.84 h. It also gave a clearance (Plasma PK in dog; IV, 2 mg/kg, read-out: Cltot (converted)) of 24.6 mL/min/kg, a Vd (Plasma PK in dog; IV, 2 mg/kg, read-out: Vss) of 5.15 L/kg and an AUC(0-t) (Plasma PK in dog; PO, 10 mg/kg) of 5460 ng·h/mL. For the same compound, the Vz_F (Plasma PK in dog; PO, 10 mg/kg) was 7.648 L/kg, the half-life (Plasma PK in dog; PO, 10 mg/kg) was 3.21 h and the EC50 (5-HT1F) was 460 nM. It also gave an Eff (5-HT1F) of 56%, an EC50 (5-HT2B [3]) of 4.2 nM and an Eff (5-HT2B [3]; 5-HT2B, Table 3) of 50%. The “Count (n. of wells)” value (TA100; TA100 + S9, 1.0E−04M) was 0 n. of wells, the Significance (TA100; TA100 + S9, 1.0E−04M) was “Negative” and the “Count (n. of wells)” value (TA100; TA100 + S9, 1.0E−05M) was 8 n. of wells. The Significance (TA100; TA100 + S9, 1.0E−05M) was “Negative”, the “Count (n. of wells)” value (TA100; TA100 + S9, 5.0E−05M) was 1 n. of wells and the Significance (TA100; TA100 + S9, 5.0E−05M) was “Negative”. The “Count (n. of wells)” value (TA100; TA100 + S9, 5.0E−06M) was 13 n. of wells, the Significance (TA100; TA100 + S9, 5.0E−06M) was “Negative” and the “Count (n. of wells)” value (TA100; TA100 − S9, 1.0E−04M) was 0 n. of wells. For the same compound, the Significance (TA100; TA100 − S9, 1.0E−04M) was “Negative”, the “Count (n. of wells)” value (TA100; TA100 − S9, 1.0E−05M) was 1 n. of wells and the Significance (TA100; TA100 − S9, 1.0E−05M) was “Negative”. The “Count (n. of wells)” value (TA100; TA100 − S9, 5.0E−05M) was 0 n. of wells, the Significance (TA100; TA100 − S9, 5.0E−05M) was “Negative” and the “Count (n. of wells)” value (TA100; TA100 − S9, 5.0E−06M) was 2 n. of wells. For the same compound, the Significance (TA100; TA100 − S9, 5.0E−06M) was “Negative”, the EC50 (5-HT2C; Gq dissociation BRET, HEK293T) was 0.5 nM and the “5-HT2C BRET Eff” value (5-HT2C; [7]) was 101%. For the same compound, the EC50 (5-HT2B [4]) was 3.5 nM, the “5-HT2B BRET Eff” value (5-HT2B [4]; [7]) was 52% and the EC50 (5-HT6) was 53.2 nM. The Eff (5-HT6) was 55%, the AUC(0-t) (Plasma PK in rat; IP, 10 mg/kg) was 193 ng·h/mL and the Cl_F (Plasma PK in rat; IP, 10 mg/kg) was 816.02 mL/min/kg. The Vz_F (Plasma PK in rat; IP, 10 mg/kg) was 225.48 L/kg, the half-life (Plasma PK in rat; IP, 10 mg/kg) was 3.3 h and the AUC(0-t) (Plasma PK in rat; IV, 2.5 mg/kg) was 37.5 ng·h/mL. It also gave a half-life (Plasma PK in rat; IV, 2.5 mg/kg) of 3.93 h, a clearance (Plasma PK in rat; IV, 2.5 mg/kg, read-out: Cltot (converted)) of 1070 mL/min/kg and a Vd (Plasma PK in rat; IV, 2.5 mg/kg, read-out: Vss) of 0.204 L/kg. For the same compound, the Follow up studies [5] was “No significant off-”, the Follow up studies ([5]; listed as compound 1) was “does not possess significant off-target activity” and the “Hepatic Extraction Ratio (E)” value (hepatocyte [6]) was less than 0.25. The “Predicted hepatic CL” value (hepatocyte [6]) was less than 5.17 mL/min/kg, the “Count (n. of wells)” value (TA1535; TA1535 + S9, 1.0E−04M) was 0 n. of wells and the Significance (TA1535; TA1535 + S9, 1.0E−04M) was “Negative”. For the same compound, the “Count (n. of wells)” value (TA1535; TA1535 + S9, 1.0E−05M) was 0 n. of wells, the Significance (TA1535; TA1535 + S9, 1.0E−05M) was “Negative” and the “Count (n. of wells)” value (TA1535; TA1535 + S9, 5.0E−05M) was 0 n. of wells. The Significance (TA1535; TA1535 + S9, 5.0E−05M) was “Negative”, the “Count (n. of wells)” value (TA1535; TA1535 + S9, 5.0E−06M) was 0 n. of wells and the Significance (TA1535; TA1535 + S9, 5.0E−06M) was “Negative”. For the same compound, the “Count (n. of wells)” value (TA1535; TA1535 − S9, 1.0E−04M) was 0 n. of wells, the Significance (TA1535; TA1535 − S9, 1.0E−04M) was “Negative” and the “Count (n. of wells)” value (TA1535; TA1535 − S9, 1.0E−05M) was 0 n. of wells. The Significance (TA1535; TA1535 − S9, 1.0E−05M) was “Negative”, the “Count (n. of wells)” value (TA1535; TA1535 − S9, 5.0E−05M) was 0 n. of wells and the Significance (TA1535; TA1535 − S9, 5.0E−05M) was “Negative”. For the same compound, the “Count (n. of wells)” value (TA1535; TA1535 − S9, 5.0E−06M) was 0 n. of wells, the Significance (TA1535; TA1535 − S9, 5.0E−06M) was “Negative” and the EC50 (5-HT5A) was “Not active”.
